Laboratory results as given in patent publication US20090253157A1, “METHOD OF DIRECTED DIFFERENTIATION OF PORCINE EMBRYONIC STEM CELLS AND USING THE SAID CELLS IN DRUG SCREENING” (Livestock Research Institute, Council of Agriculture, …, priority 2008, published 2009).
Several values for one entry are separate records, joined by “and”; a condition that tells them apart may be missing. Equal entries are not always repeated. Marks after values point to notes of the source that are not given here.

System: pES cells of the M215-3 strain
Assay: Directed neural differentiation of pES cells (two-stage induction), immunocytochemical staining for neural biomarkers
Format: cell-based, porcine
Procedure: The pES cells of the M215-3 strain derived from the pre-implantation blastocysts of Taiwan Livestock Research Institute Black Pig No. 1 (a topcrossing breed established from Taoyuan and Duroc pigs) were maintained in ES-cell culture medium (ESM) consisting of Dulbecco's modified eagle medium (DMEM, high glucose and no pyruvate, Invitrogen, Grand Island, N.Y., USA) supplemented with 1 mM L-glutamine (Sigma-Aldrich, St. Louis, Mo., USA), 0.1 mM β-2-mercaptoethanol (Sigma-Aldrich), […] MEM non-essential amino acids (Sigma-Aldrich), 0.03 mM adenosine (Sigma-Aldrich), 0.03 mM guanosine (Sigma-Aldrich), 0.03 mM cytidine (Sigma-Aldrich), 0.03 mM uridine (Sigma-Aldrich), 0.01 mM thymidine (Sigma-Aldrich), antibiotics (50 units/ml penicillin G and 50 μg/ml streptomycin sulfate, Invitrogen) and 16% fetal bovine serum (FBS, Invitrogen) as described previously (Chen et al., 1991, J. Chin. Soc. Anim. Sci. 20: 326-339). Briefly, the pluripotent pES cells were propagated on a feeder layer of mitomycin C (Sigma-Aldrich) inactivated STO cells (mouse embryonic fibroblasts, CRL-1503, USA) in gelatin-coated Multidish 4 Wells® (Nunc 176740, Roskilde, Denmark) in ESM at 39° C. with an atmosphere of 5% CO2 in air. For the maintenance of undifferentiation, pES colonies were regulatory subcultured with 0.25% trypsin-0.02 mM EDTA (Invitrogen) and re-plated onto fresh STO feeder layers every 5 to 7 days.
Confluent pES cells were trypsinized and subjected to a two-stage in vitro induction protocol for neural differentiation. They were firstly taken into a suspension culture in an Easy Flask® (NUNC 169900, Roskilde, Denmark) for a 12-day period of neural induction. Neural induction is initiated by plating undifferentiated pES cells as single-cell suspension at a number of 1×10^5 cells totally in ESM medium withdrawing FBS and containing 1 μM retinoic acid (RA, Sigma-Aldrich), 200 ng/ml sonic hedgehog (SHH, R&D systems, Minneapolis, Minn., USA) and 100 ng/ml fibroblast growth factor (FGF, Sigma-Aldrich) as described by Barberi et al. (Nat. Biotechnol. 2003. 21: 1200-1207). Five combined treatments of neurogenic stimulators for neural induction were applied: (1) RA, (2) RA+SHH, (3) RA+FGF, (4) SHH+FGF, (5) RA+SHH+FGF. After 12 days of induction, the pES cell-derived neural cells were plated onto gelatin-coated 4-well dishes in high-density (2×10^4 cells/ml) or low-density (5×10^3 cells/ml). These cells were then cultured in DMEM/F12 medium (Sigma-Aldrich) supplemented with 10% FBS, 20 ng/ml human recombinant epidermal growth factor (hrEGF, Invitrogen), 20 ng/ml human recombinant basic fibroblast growth factor (hrbFGF, Invitrogen), and 1:100 N2 (Invitrogen), and allowed for the propagation of neural precursor cells (Pan et al., 2005 Biochem. Biophys. Res. Commun. 327: 548-556). After plating onto the 4-well dish, the induced pES cells were treated with trypsin/EDTA and collected at days 2, 4, 6, 8, 10, and 12, respectively, to analyze the neural-related development by immunocytochemical staining.
Cells for immunocytochemical analysis were fixed in 10% formalin at room temperature for 30 minutes. The cells were washed with phosphate buffered saline (PBS, Sigma-Aldrich), then incubated with 0.3% Triton X-100 (Sigma-Aldrich) for 10 minutes, 3% H2O2 (Sigma-Aldrich) for 5 minutes and incubated in blocking buffer (5% FBS) at room temperature for 2 hours. After being washed with PBS, the cells were incubated overnight with appropriate dilution of primary antibody, or combination of antibodies at 4° C. (Li et al., 2005 Nat. Biotechnol. 2005. 23: 215-221). Subsequently, cells were incubated with secondary antibody of Fluorescein (FITC)-conjugated AffiniPure Goat Anti-Rabbit IgG, Goat Anti-Mouse IgG, IgM (1:200, Jackson Immunoresearch Laboratories, West Baltimore Pike, Pa., USA) for a minimum of 2 hours, followed by washing in PBS. […]

[1] = day 6 after the treatments, mean±S.D.

For `CC1=C(/C=C/C(C)=C/C=C/C(C)=C/C(=O)O)C(C)(C)CCC1` [RA, retinoic acid], the “percentage of pES cell-derived neural lineages expressing nestin” value (D2 after replating, 12-day induction, 1 μM RA, 200 ng/ml SHH, 100 ng/ml FGF, mean±S.D.) was 86.2 ± 7.9^ab %, the “percentage of pES cell-derived neural lineages expressing A2B5” value (D2 after replating, mean±S.D.) was 83.7 ± 12.6% and the “percentage of pES cell-derived neural lineages expressing ChAT” value (D2 after replating, mean±S.D.) was 87.1 ± 5.6^ab %. The “percentage of pES cell-derived neural lineages expressing GFAP” value (D2 after replating, mean±S.D.) was 9.8 ± 3.8%, the “percentage of pES cell-derived neural lineages expressing NFL” value (D2 after replating, mean±S.D.) was 93.9 ± 3.9^a % and the “percentage of pES cell-derived neural lineages expressing TH” value (D2 after replating, mean±S.D.) was 7.8 ± 2.5%. The “percentage of pES cell-derived neural lineages expressing A2B5” value (D4 after replating, mean±S.D.) was 86.6 ± 3.3%, the “percentage of pES cell-derived neural lineages expressing ChAT” value (D4 after replating, mean±S.D.) was 85.8 ± 3.2^bc % and the “percentage of pES cell-derived neural lineages expressing GFAP” value (D4 after replating, mean±S.D.) was 7.6 ± 4.2%. The “percentage of pES cell-derived neural lineages expressing NFL” value (D4 after replating, mean±S.D.) was 90.3 ± 4.8^ab %, the “percentage of pES cell-derived neural lineages expressing TH” value (D4 after replating, mean±S.D.) was 8.0 ± 4.9% and the “percentage of pES cell-derived neural lineages expressing nestin” value (D4 after replating, mean±S.D.) was 90.5 ± 4.7^a %. For the same compound, the “percentage of pES cell-derived neural lineages expressing A2B5” value (D6 after replating, mean±S.D.) was 87.6 ± 7.4% and 87.6 ± 7.4^a %, the “percentage of pES cell-derived neural lineages expressing ChAT” value (D6 after replating, mean±S.D.) was 91.8 ± 8.3^a % and the “percentage of pES cell-derived neural lineages expressing GFAP” value (D6 after replating, mean±S.D.) was 7.7±3.6% and 7.7 ± 3.6^d %. For the same compound, the “percentage of pES cell-derived neural lineages expressing NFL” value (D6 after replating, mean±S.D.) was 91.8 ± 6.0^a %, the “percentage of pES cell-derived neural lineages expressing TH” value (D6 after replating, mean±S.D.) was 8.7±1.7% and 8.7 ± 1.7^b % and the “percentage of pES cell-derived neural lineages expressing A2B5” value (D8 after replating, mean±S.D.) was 86.9 ± 9.3%. For the same compound, the “percentage of pES cell-derived neural lineages expressing ChAT” value (D8 after replating, mean±S.D.) was 86.9 ± 4.4^ab %, the “percentage of pES cell-derived neural lineages expressing GFAP” value (D8 after replating, mean±S.D.) was 7.3 ± 1.5% and the “percentage of pES cell-derived neural lineages expressing NFL” value (D8 after replating, mean±S.D.) was 85.8 ± 4.2^b %. The “percentage of pES cell-derived neural lineages expressing TH” value (D8 after replating, mean±S.D.) was 8.5 ± 2.7%, the “percentage of pES cell-derived neural lineages expressing nestin” value (D8 after replating, mean±S.D.) was 81.2 ± 8.0^bc % and the “percentage of pES cell-derived neural lineages expressing A2B5” value (D10 after replating, mean±S.D.) was 86.3 ± 1.9%. For the same compound, the “percentage of pES cell-derived neural lineages expressing ChAT” value (D10 after replating, mean±S.D.) was 89.9 ± 7.2^ab %, the “percentage of pES cell-derived neural lineages expressing GFAP” value (D10 after replating, mean±S.D.) was 7.7 ± 4.5% and the “percentage of pES cell-derived neural lineages expressing NFL” value (D10 after replating, mean±S.D.) was 84.4 ± 7.7^b %. For the same compound, the “percentage of pES cell-derived neural lineages expressing TH” value (D10 after replating, mean±S.D.) was 8.5 ± 4.2%, the “percentage of pES cell-derived neural lineages expressing nestin” value (D10 after replating, mean±S.D.) was 82.4 ± 11.4^bc % and the “percentage of pES cell-derived neural lineages expressing A2B5” value (D12 after replating, mean±S.D.) was 84.8 ± 5.2%. The “percentage of pES cell-derived neural lineages expressing ChAT” value (D12 after replating, mean±S.D.) was 80.3 ± 6.0^c %, the “percentage of pES cell-derived neural lineages expressing GFAP” value (D12 after replating, mean±S.D.) was 7.6 ± 2.3% and the “percentage of pES cell-derived neural lineages expressing NFL” value (D12 after replating, mean±S.D.) was 74.4 ± 12.3^c %. The “percentage of pES cell-derived neural lineages expressing TH” value (D12 after replating, mean±S.D.) was 8.4 ± 3.5%, the “percentage of pES cell-derived neural lineages expressing nestin” value (D12 after replating, mean±S.D.) was 77.9 ± 6.6^c % and the “percentage of pES cell-derived neural lineages expressing CNPase” value [1] was 89.8 ± 4.7^ab %. The “percentage of pES cell-derived neural lineages expressing GABA” value [1] was 80.5±9.2% and 80.5 ± 9.2^a %, the “percentage of pES cell-derived neural lineages expressing MAP2” value [1] was 86.1 ± 3.2^a % and the “percentage of pES cell-derived neural lineages expressing O4” value [1] was 90.7 ± 5.9%. For the same compound, the “percentage of pES cell-derived neural lineages expressing S100” value [1] was 71.4 ± 12.5^a %, the “percentage of differentiated cells GFAP positive” value (during the 12-day post-treatment period (Table 3)) was “Less than 10%” and the “percentage of cells expressing TH” value (during the culture, day 2 to day 12 (text summary of Table 5)) was “below 10%”. For the same compound, the “ratio of cells expressing A2B5” value (during the following culture, day 2 to day 12 (text summary of Table 4)) was “above 80%”.
